A short description of data set [1]: Kinetic solubility assay (CLND), potassium phosphate buffer pH 6.8. It is filed as physicochemical. The following applies: pH 6.8, 2% DMSO, 24 hours at ambient temperature; for solubility at 24 h: potassium phosphate buffer, pH 6.8, aqueous buffer, kinetic from dmso stock.
From the text: • Inject filtrates into the nitrogen detector for quantification on Analiza's Automated Discovery Workstation (ADW). • Solubility results generated in μg/mL
Data set [2] concerns the target Human MDR1 transfected MDCK cells (Homo sapiens (Human), UniProt P08183). As to the kind of experiment: MDR1-MDCK assay (apparent permeability, efflux ratio). The following applies: 1 μM, 120 minutes. It is filed as in vitro ADME.
A further data set concerns the target IRAK4 (Homo sapiens (Human), UniProt Q9NWZ3). As to the kind of experiment: IRAK4 2-hour 1 mM ATP Biochemical Assay (MesoScale Detection format). The following applies: 100 pM IRAK4, read-out: IRAK4 IC50.
A short description of data set [3]: Kpuu assay (in vivo brain-to-plasma partition, unbound). The following applies: intravenous infusion 4 to 24 h, unbound drug partition coefficient; for Kp: brain (unbound) versus plasma (unbound), read-out: Brain Kpu,u.
Method: For the brain-to-plasma partition coefficient (Kp) evaluation, a dosing solution was intravenously infused into animals at a constant flow rate for 4 to 24 h. Blood samples were serially collected during infusion, and CSF and brain samples were harvested at the end of infusion.
Tissue samples were typically homogenized in phosphate buffer saline (PBS) using a bead ruptor.
CSF samples were typically diluted with 8% BSA in PBS to prevent from non-specific binding. Artificial CSF (aCSF) is used as the surrogate matrix.
Calibration curves were prepared by spiking the analyte(s) into blank matrices, which were processed together with plasma, tissue homogenate and/or CSF samples by protein precipitation using a proper organic solvent (e.g. acetonitrile and methanol) containing generic analogue internal standards (e.g. verapamil, chrysin and glyburide). Matrix matching was used when analyzing multiple matrices in the same run. Samples above the upper limit of quantitation (ULOQ) needed to be diluted into the calibration range using either a pre-extraction or post-extraction dilution approach.
Processed samples were analyzed by LC-MS/MS using a proper method performing within the acceptable sensitivity, selectivity, precision and accuracy. For an analytical run to be accepted, over 75% of the calibration standards in the dual calibration curves needed to be within 20% of the nominal concentrations.
Brain concentrations were compared against plasma concentrations at the corresponding timepoint for the calculation of partition coefficient (Kp).
Unbound drug partition coefficient (Kpuu), defined as the ratio of unbound drug partition across the blood-brain barrier, was calculated using the equation below:
[formula] • Cb: measured total drug concentration in brain • Fub: unbound drug fraction in brain • Cp: measured total drug concentration in plasma • Fup: unbound drug fraction in plasma Compound- or study-specific PK analysis that deviates from the typical procedure might be used when necessary, which will be documented in a study specific protocol included in the data upload.
Mix thoroughly. • This spiked plasma solution is shown in FIG. 1. • 3) Prepare a chilled ‘crash’ solution of internal standard in a solvent solution. • Pipette 200 μL of 25 ng/mL solution of internal standard, CPDPX (8-Cyclopentyl-1,3-dipropylxanthine, Sigma-Aldrich, C101) in 1:1 acetonitrile/methanol solvent solution into a 1 mL 96-well plate. • Chill on ice or refrigerate at 4° C. • This solution becomes the ‘Crash’ plate in FIG. 1. • 4) From remaining spiked plasma, remove 50 μL (T=0 h) of each plasma sample and place into a crash plate which contains 200 μL. To matrix match, add 50 μL of blank buffer to the crashed sample (similar to PPB samples). […] Mix crash plate thoroughly. • From remaining spiked plasma, remove 50 μL (T=4 h) of each plasma sample and place into a crash plate. To matrix match, add 50 μL of blank buffer to the crashed sample (similar to the protein binding samples). • Centrifuge crash plate at 3900 rpm for 10 minutes at 4° C.
% Free=(PAR of buffer side/PAR of plasma side)*100 • PAR—Peak area ratio (PAR)
Fu=% Free/100 • Fu=fraction unbound
The target in data set [4] is catalytical domain of human IRAK4 (a.a. 163-460) (Homo sapiens (Human), UniProt Q9NWZ3). Kind of data set: IRAK4 SPR binding assay. As to conditions: single-cycle, 1:1 interaction model.
Chain of catalytical domain of human IRAK4 (a.a. 163-460) (Q9NWZ3 163-460): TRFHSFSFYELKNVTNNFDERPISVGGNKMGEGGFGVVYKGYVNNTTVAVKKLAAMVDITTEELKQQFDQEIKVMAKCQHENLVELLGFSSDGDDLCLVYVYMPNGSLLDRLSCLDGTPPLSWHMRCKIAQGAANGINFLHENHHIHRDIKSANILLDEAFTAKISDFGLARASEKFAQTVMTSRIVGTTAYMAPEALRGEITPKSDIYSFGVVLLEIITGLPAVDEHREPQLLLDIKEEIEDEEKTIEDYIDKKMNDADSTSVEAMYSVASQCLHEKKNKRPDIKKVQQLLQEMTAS
Method: IRAK4 SPR. IRAK4 SPR was set up on Biacore T200 or S200 by using Biotin CAPture kit (Cytiva). In brief, purified IRAK4 in capture buffer (25 mM Hepes, 150 mM NaCl, 1 mM TCEP, pH7.4) was captured onto a CAP sensor surface via the interaction of biotin to streptavidin Typical capture level is between 1,000 RU to 2,000 RU, Compound binding kinetics to IRAK4 was examined with running buffer (25 mM Hepes, 150 mM NaCl, 1 mM TCEP, 2% DMSO, pH7.4). Serially diluted compounds were injected at 50 μl/min in single-cycle for 60-s association of each injection followed by 360-s dissociation at the end. The data was fitted to global 1:1 interaction model.
The next data set deals with MDR1 (Homo sapiens (Human), UniProt P08183). As to the kind of experiment: MDR1-MDCK assay (apparent permeability, efflux ratio). Format: in vitro ADME. As to conditions: human, MDCK-MDR1, 1 μM, read-out: MDR1-MDCK_Efflux Ratio.
Chain of MDR1 (P08183 whole entry): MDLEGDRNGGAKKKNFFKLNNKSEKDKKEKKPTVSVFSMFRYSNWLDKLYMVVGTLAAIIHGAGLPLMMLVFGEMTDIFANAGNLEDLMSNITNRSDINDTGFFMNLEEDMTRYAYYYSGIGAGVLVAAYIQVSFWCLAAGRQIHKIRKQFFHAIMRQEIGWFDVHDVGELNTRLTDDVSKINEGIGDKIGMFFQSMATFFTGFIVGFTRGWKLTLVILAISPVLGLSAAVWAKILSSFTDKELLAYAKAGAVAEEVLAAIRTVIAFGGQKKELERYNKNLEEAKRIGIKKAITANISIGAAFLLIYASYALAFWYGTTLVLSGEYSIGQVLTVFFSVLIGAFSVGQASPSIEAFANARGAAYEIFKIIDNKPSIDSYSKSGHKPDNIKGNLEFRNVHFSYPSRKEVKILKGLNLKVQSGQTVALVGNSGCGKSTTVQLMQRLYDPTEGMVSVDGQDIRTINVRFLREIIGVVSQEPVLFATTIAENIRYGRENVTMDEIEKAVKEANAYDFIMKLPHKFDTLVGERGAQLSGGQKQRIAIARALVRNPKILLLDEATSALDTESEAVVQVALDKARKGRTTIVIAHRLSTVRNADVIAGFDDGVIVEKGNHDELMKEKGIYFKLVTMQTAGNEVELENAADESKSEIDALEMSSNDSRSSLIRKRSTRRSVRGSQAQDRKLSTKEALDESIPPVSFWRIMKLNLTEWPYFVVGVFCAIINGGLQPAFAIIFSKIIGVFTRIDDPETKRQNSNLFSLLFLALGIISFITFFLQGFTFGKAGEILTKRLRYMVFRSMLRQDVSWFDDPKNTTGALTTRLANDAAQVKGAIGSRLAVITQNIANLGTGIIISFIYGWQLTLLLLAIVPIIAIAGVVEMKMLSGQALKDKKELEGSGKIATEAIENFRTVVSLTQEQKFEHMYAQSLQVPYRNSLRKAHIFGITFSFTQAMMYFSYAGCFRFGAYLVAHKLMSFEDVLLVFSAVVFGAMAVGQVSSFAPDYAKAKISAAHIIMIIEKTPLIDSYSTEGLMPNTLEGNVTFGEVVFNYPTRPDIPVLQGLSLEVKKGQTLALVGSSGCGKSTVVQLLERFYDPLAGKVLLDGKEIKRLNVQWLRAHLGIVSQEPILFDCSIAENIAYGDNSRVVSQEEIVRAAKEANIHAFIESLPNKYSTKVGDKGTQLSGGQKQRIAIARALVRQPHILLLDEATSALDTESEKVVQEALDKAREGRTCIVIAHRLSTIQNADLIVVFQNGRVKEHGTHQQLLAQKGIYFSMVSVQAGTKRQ

The values that follow come from patent publication US20250268877A1 (BIOGEN MA INC., priority 2020, published 2025).

In brackets after ≈: the same amount, converted by molar mass.

Chain of Human MDR1 transfected MDCK cells (P08183 whole entry): as above
Chain of IRAK4 (Q9NWZ3 whole entry, the tested form may be a part): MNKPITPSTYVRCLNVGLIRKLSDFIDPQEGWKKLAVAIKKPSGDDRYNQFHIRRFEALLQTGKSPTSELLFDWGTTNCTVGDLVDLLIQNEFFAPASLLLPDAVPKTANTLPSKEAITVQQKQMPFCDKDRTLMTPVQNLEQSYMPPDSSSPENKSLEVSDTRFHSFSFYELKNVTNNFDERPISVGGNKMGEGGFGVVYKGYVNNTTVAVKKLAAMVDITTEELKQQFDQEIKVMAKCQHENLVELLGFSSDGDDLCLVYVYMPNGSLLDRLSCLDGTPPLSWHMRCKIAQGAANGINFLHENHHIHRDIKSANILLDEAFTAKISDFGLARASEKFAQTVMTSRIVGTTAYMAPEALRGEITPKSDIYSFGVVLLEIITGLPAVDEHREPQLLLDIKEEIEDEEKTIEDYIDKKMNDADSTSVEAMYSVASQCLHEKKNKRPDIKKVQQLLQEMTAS

For the molecule `C[C@@H]1C[C@@H]1n1cccc(NC(=O)c2cc3cn([C@@]45CC[C@@H](C4)OC5)nc3nc2OC2CC2)c1=O` (single isomer, unassigned) [Example 94], the “Solubility pH 6.8” value in data set [1] stood at 14.7 ug/mL. Further, the “MDR1-MDCK_Efflux Ratio” value in data set [2] was determined as 2.73. The IC50 at IRAK4 stood at 0.6 nM.
Turning to `C[C@@H]1C[C@@H]1n1cccc(NC(=O)c2cc3cn(C45COC(CF)(C4)C5)nc3nc2OC2CC2)c1=O` [Example 92], the “Solubility pH 6.8” value in data set [1] turned out to be 12.8 ug/mL. For the same molecule, the “MDR1-MDCK_Efflux Ratio” value in data set [2] was found to be 5.77. Also, the IC50 at IRAK4 came to 1.7 nM.
With `CC(C)Oc1cc2nn(C34COC(CF)(C3)C4)cc2cc1C(=O)Nc1cccn([C@@H]2C[C@@H]2C)c1=O` [Example 81, 2-(1-(fluoromethyl)-2-oxabicyclo[2.1.1]hexan-4-yl)-6-isopropoxy-N-(1-((1R,2S)-2-methylcyclopropyl)-2-oxo-1,2-dihydropyridin-3-yl)-2H-indazole-5-carboxamide], in data set [2], the “MDR1-MDCK_Efflux Ratio” value was found to be 1.95. Further, the IC50 at IRAK4 was determined as 37 nM.
On to `CC12CC(n3cc4cc(C(=O)Nc5cccn([C@H]6C[C@H]6F)c5=O)c(OC5CC5)nc4n3)(CO1)C2` [Example 85, 6-cyclopropoxy-N-(1-((1S,2R)-2-fluorocyclopropyl)-2-oxo-1,2-dihydropyridin-3-yl)-2-(1-methyl-2-oxabicyclo[2.1.1]hexan-4-yl)-2H-pyrazolo[3,4-b]pyridine-5-carboxamide], for which, in data set [3], the Kp is 0.3. Also, in data set [1], the solubility at 24 h turned out to be 20.1 µg/mL (≈ 43.2 µM). Also, the “IRAK4 SPR binding Half Life” value in data set [4] was 48 min. Moreover, the efflux ratio at 120 min, 1 μM on MDR1 stood at 7.21. For the same molecule, the IC50 on IRAK4 is 0.2 nM.
For the molecule `C[C@]12CC[C@](n3cc4cc(C(=O)Nc5cccn(C6CC6)c5=O)c(OC5CCC5)cc4n3)(CO1)C2` (single isomer, unassigned) [Example 41], the “Brain Kpu,u” value in data set [3] turned out to be 0.9. The molecule also yielded a solubility at 24 h in data set [1] of 19.7 µg/mL (≈ 41.5 µM). Further, in data set [4], the “IRAK4 SPR binding Half Life” value is 31.6 min. Further, on MDR1, the efflux ratio at 120 min, 1 μM worked out at 1.71. For the same molecule, the IC50 on IRAK4 is 0.2 nM.
Take `CC(C)Oc1nc2nn(C34COC(CF)(C3)C4)cc2cc1C(=O)Nc1cccn(C2CC2)c1=O` [Example 10, N-(1-cyclopropyl-2-oxo-1,2-dihydropyridin-3-yl)-2-(1-(fluoromethyl)-2-oxabicyclo[2.1.1]hexan-4-yl)-6-isopropoxy-2H-pyrazolo[3,4-b]pyridine-5-carboxamide]: in data set [3], the Kp is 0.6. For the same molecule, the solubility at 24 h in data set [1] turned out to be 22.7 µg/mL (≈ 48.5 µM). Besides, in data set [4], the “IRAK4 SPR binding Half Life” value came to 73.4 min. Further, the efflux ratio at 120 min, 1 μM at MDR1 stood at 3.4. The IC50 on IRAK4 was determined as 0.2 nM.
On the same counts, the results for `CC(C)Oc1cc2nn([C@@]34CC[C@@](C)(C3)OC4)cc2cc1C(=O)Nc1cccn(C2CC2)c1=O` [Example 2, N-(1-cyclopropyl-2-oxo-1,2-dihydropyridin-3-yl)-6-isopropoxy-2-((1S,4S)-1-methyl-2-oxabicyclo[2.2.1]heptan-4-yl)-2H-indazole-5-carboxamide] are 0.9, 51.7 µg/mL (≈ 112 µM), 52.85 min, 1.58 and 0.4 nM.
Consider `CC(C)Oc1cc2nn([C@]34CC[C@](C)(C3)OC4)cc2cc1C(=O)Nc1cccn([C@H]2C[C@H]2F)c1=O` (single isomer, unassigned) [Example 51], for which the Kp in data set [3] stood at 0.4. The same molecule returned a solubility at 24 h in data set [1] of 42.3 µg/mL (≈ 88 µM). For the same molecule, in data set [4], the “IRAK4 SPR binding Half Life” value worked out at 139 min. At MDR1, the efflux ratio at 120 min, 1 μM was 3.47. In addition, at IRAK4, the IC50 was 0.1 nM.
